Where a name gives a salt, the structure may show the parent alone. Read-outs that look alike come from different tables or passages of the source.
Key:
[1] = target: DNAse I; assay: DNAse I inhibitor assay based on NIR emission of 4/QIII ensemble; assay type: biochemical; details: [4]=4 μM, [QIII]=8 μM, [DNAse I]=4 U/ml, NIR emission at 785 nm; read-out: IC50 (DNAse I inhibition)
Experimental: General Procedure for Multiwell DNAse I Assay. A reaction mixture (total volume of 100 μL) containing 4 (4 μM) and QIII (8 μM) was prepared in 9:1 Tris buffer (10 mM Tris-HCl, 0.25 mM MgCl2, 0.1 mM CaCl2, pH 7.5):DMSO. Tris buffer was prepared using nuclease-free water. The reaction mixtures were prepared in white 96-well plates (Costar, Corning, NY) and incubated at room temperature for 2 min. Varying concentrations of DNAse I prepared in Tris buffer (10 mM Tris-HCl, 0.25 mM MgCl2, 0.1 mM CaCl2, pH 7.5) were added to the reaction mixture and incubated at room temperature for 10 min. Fluorescence spectra were obtained using Agilent Cary Eclipse fluorescence spectrophotometer, λex=445 nm. NIR emission intensity at 785 nm was detected.
Determination of IC50 Values of DNAse I Inhibitors. DNAse I assay was performed as previously described in the presence of DNAse I (4 U) and various concentrations of the inhibitor. Stock solutions of the inhibitors were prepared in Tris buffer (10 mM Tris-HCl, pH 7.5). The IC50 values were calculated by plotting log[inhibitor] versus NIR emission intensity of 4. The dose-response curves were analyzed by nonlinear regression using GraphPad Prism 8.0 (GraphPad Software, Inc., La Jolla, CA, USA).

[2] = target: DNAse I; details: previously reported values (Jang et al., J. Biomol. Screen. 2015); cited from earlier work

Row | Compound | IC50 [1] | IC50 [2]
1 | [Cl-].[Cl-].[Zn+2] [ZnCl2] | 20.7 µM | 18 µM
2 | N=C(N)NNc1ccc(NNC(=N)N)cc1 [JR-132, 1,4-phenylene-bis-aminoguanidine hydrochloride] | 2.29 µM | 2.73 µM
3 | O=C(O)CN(CCN(CC(=O)O)CC(=O)O)CC(=O)O [EDTA] | 202 µM | 190 µM
